{"source": "PubChem BioAssay (NCI)", "experiment_in_all_cases": "NCI-60 cell line screen, 384-well format", "key": {"[1]": {"system": "SK-MEL-28 melanoma"}, "[2]": {"system": "HT29 colon"}, "[3]": {"system": "RPMI-8226 leukemia"}, "[4]": {"system": "OVCAR-3 ovarian"}, "[5]": {"system": "MDA-MB-231 breast"}, "[6]": {"system": "MOLT-4 leukemia"}, "[7]": {"system": "NCI-H460 NSCLC"}, "[8]": {"system": "BT-549 breast"}, "[9]": {"system": "LOX IMVI melanoma"}, "[10]": {"system": "A498 renal"}, "[11]": {"system": "ACHN renal"}, "[12]": {"system": "HL-60(TB) leukemia"}, "[13]": {"system": "SK-MEL-5 melanoma"}, "[14]": {"system": "SR leukemia"}, "[15]": {"system": "UACC-257 melanoma"}, "[16]": {"system": "SN12C renal"}, "[17]": {"system": "SF-268 CNS"}, "[18]": {"system": "SK-OV-3 ovarian"}, "[19]": {"system": "MALME-3M melanoma"}, "[20]": {"system": "HS 578T breast"}, "[21]": {"system": "SNB-75 CNS"}, "[22]": {"system": "EKVX NSCLC"}, "[23]": {"system": "NCI-H322M lung"}, "[24]": {"system": "HOP-92 NSCLC"}, "[25]": {"system": "COLO 205 colon"}, "[26]": {"system": "SNB-19 CNS"}, "[27]": {"system": "A549 NSCLC"}, "[28]": {"system": "KM12 colon"}, "[29]": {"system": "NCI-H23 lung"}, "[30]": {"system": "U251 glioblastoma"}, "[31]": {"system": "RXF 393 renal"}, "[32]": {"system": "M14 melanoma"}, "[33]": {"system": "HCT-116 colon"}, "[34]": {"system": "NCI-H522 lung"}, "[35]": {"system": "MDA-MB-468 breast"}, "[36]": {"system": "UACC-62 melanoma"}, "[37]": {"system": "NCI-H226 lung"}, "[38]": {"system": "DU-145 prostate"}, "[39]": {"system": "PC-3 prostate"}, "[40]": {"system": "CAKI-1 renal"}, "[41]": {"system": "MCF7 breast"}, "[42]": {"system": "OVCAR-8 ovarian"}, "[43]": {"system": "HCT-15 colon"}, "[44]": {"system": "HCC-2998 colon"}}, "note": "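GI50 marks 50% less growth. TGI denotes the concentration required for complete inhibition of growth.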"}
{"smiles": "CCn1c(-c2nonc2N)nc2c(C#CC(C)(C)O)ncc(OC[C@H]3CCCNC3)c21", "values": [{"measurement": "GI50", "setting": "[1]", "result": 4.69, "unit": "µM"}, {"measurement": "TGI", "setting": "[1]", "result": 20.4, "unit": "µM"}, {"measurement": "GI50", "setting": "[2]", "result": 0.199, "unit": "µM"}, {"measurement": "TGI", "setting": "[2]", "result": 16.5, "unit": "µM"}, {"measurement": "GI50", "setting": "[3]", "result": "< 0.01", "unit": "µM"}, {"measurement": "TGI", "setting": "[3]", "result": 0.283, "unit": "µM"}, {"measurement": "GI50", "setting": "[4]", "result": 0.198, "unit": "µM"}, {"measurement": "TGI", "setting": "[4]", "result": 15.2, "unit": "µM"}, {"measurement": "GI50", "setting": "[5]", "result": 2.62, "unit": "µM"}, {"measurement": "TGI", "setting": "[5]", "result": 16.7, "unit": "µM"}, {"measurement": "GI50", "setting": "[6]", "result": "< 0.01", "unit": "µM"}, {"measurement": "TGI", "setting": "[6]", "result": "< 0.01", "unit": "µM"}, {"measurement": "GI50", "setting": "[7]", "result": 0.195, "unit": "µM"}, {"measurement": "TGI", "setting": "[7]", "result": 11, "unit": "µM"}, {"measurement": "GI50", "setting": "[8]", "result": "< 0.01", "unit": "µM"}, {"measurement": "TGI", "setting": "[8]", "result": 2.13, "unit": "µM"}, {"measurement": "GI50", "setting": "[9]", "result": 1.05, "unit": "µM"}, {"measurement": "TGI", "setting": "[9]", "result": 8.42, "unit": "µM"}, {"measurement": "GI50", "setting": "[10]", "result": "< 0.01", "unit": "µM"}, {"measurement": "TGI", "setting": "[10]", "result": "< 0.01", "unit": "µM"}, {"measurement": "GI50", "setting": "[11]", "result": "< 0.01", "unit": "µM"}, {"measurement": "TGI", "setting": "[11]", "result": 0.129, "unit": "µM"}, {"measurement": "GI50", "setting": "[12]", "result": "< 0.01", "unit": "µM"}, {"measurement": "TGI", "setting": "[12]", "result": 0.101, "unit": "µM"}, {"measurement": "GI50", "setting": "[13]", "result": "< 0.01", "unit": "µM"}, {"measurement": "TGI", "setting": "[13]", "result": 0.19, "unit": "µM"}, {"measurement": "GI50", "setting": "[14]", "result": "< 0.01", "unit": "µM"}, {"measurement": "TGI", "setting": "[14]", "result": "< 0.01", "unit": "µM"}, {"measurement": "GI50", "setting": "[15]", "result": 2, "unit": "µM"}, {"measurement": "TGI", "setting": "[15]", "result": 16.7, "unit": "µM"}, {"measurement": "GI50", "setting": "[16]", "result": 0.0908, "unit": "µM"}, {"measurement": "TGI", "setting": "[16]", "result": 12.4, "unit": "µM"}, {"measurement": "GI50", "setting": "[17]", "result": 6.19, "unit": "µM"}, {"measurement": "TGI", "setting": "[17]", "result": 20.2, "unit": "µM"}, {"measurement": "GI50", "setting": "[18]", "result": 0.0422, "unit": "µM"}, {"measurement": "TGI", "setting": "[18]", "result": 12.7, "unit": "µM"}, {"measurement": "GI50", "setting": "[19]", "result": 0.183, "unit": "µM"}, {"measurement": "TGI", "setting": "[19]", "result": 17.6, "unit": "µM"}, {"measurement": "GI50", "setting": "[20]", "result": "< 0.01", "unit": "µM"}, {"measurement": "TGI", "setting": "[20]", "result": 14.2, "unit": "µM"}, {"measurement": "GI50", "setting": "[21]", "result": 0.216, "unit": "µM"}, {"measurement": "TGI", "setting": "[21]", "result": 17.1, "unit": "µM"}, {"measurement": "GI50", "setting": "[22]", "result": 4.79, "unit": "µM"}, {"measurement": "TGI", "setting": "[22]", "result": 26.5, "unit": "µM"}, {"measurement": "GI50", "setting": "[23]", "result": 0.0268, "unit": "µM"}, {"measurement": "TGI", "setting": "[23]", "result": 18.4, "unit": "µM"}, {"measurement": "GI50", "setting": "[24]", "result": "< 0.01", "unit": "µM"}, {"measurement": "TGI", "setting": "[24]", "result": 21.7, "unit": "µM"}, {"measurement": "GI50", "setting": "[25]", "result": 0.116, "unit": "µM"}, {"measurement": "TGI", "setting": "[25]", "result": 12.1, "unit": "µM"}, {"measurement": "GI50", "setting": "[26]", "result": 0.495, "unit": "µM"}, {"measurement": "TGI", "setting": "[26]", "result": 15.2, "unit": "µM"}, {"measurement": "GI50", "setting": "[27]", "result": 4.15, "unit": "µM"}, {"measurement": "TGI", "setting": "[27]", "result": 22.7, "unit": "µM"}, {"measurement": "GI50", "setting": "[28]", "result": 0.018, "unit": "µM"}, {"measurement": "TGI", "setting": "[28]", "result": 14.4, "unit": "µM"}, {"measurement": "GI50", "setting": "[29]", "result": "< 0.01", "unit": "µM"}, {"measurement": "TGI", "setting": "[29]", "result": 13.6, "unit": "µM"}, {"measurement": "GI50", "setting": "[30]", "result": 1.08, "unit": "µM"}, {"measurement": "TGI", "setting": "[30]", "result": 14.4, "unit": "µM"}, {"measurement": "GI50", "setting": "[31]", "result": "< 0.01", "unit": "µM"}, {"measurement": "TGI", "setting": "[31]", "result": 19.2, "unit": "µM"}, {"measurement": "GI50", "setting": "[32]", "result": "< 0.01", "unit": "µM"}, {"measurement": "TGI", "setting": "[32]", "result": "< 0.01", "unit": "µM"}, {"measurement": "GI50", "setting": "[33]", "result": 1.47, "unit": "µM"}, {"measurement": "TGI", "setting": "[33]", "result": 17.7, "unit": "µM"}, {"measurement": "GI50", "setting": "[34]", "result": 1.25, "unit": "µM"}, {"measurement": "TGI", "setting": "[34]", "result": 4.73, "unit": "µM"}, {"measurement": "GI50", "setting": "[35]", "result": 0.099, "unit": "µM"}, {"measurement": "TGI", "setting": "[35]", "result": 19.6, "unit": "µM"}, {"measurement": "GI50", "setting": "[36]", "result": 0.22, "unit": "µM"}, {"measurement": "TGI", "setting": "[36]", "result": 16.8, "unit": "µM"}, {"measurement": "GI50", "setting": "[37]", "result": 4.62, "unit": "µM"}, {"measurement": "TGI", "setting": "[37]", "result": 18.5, "unit": "µM"}, {"measurement": "GI50", "setting": "[38]", "result": 0.0938, "unit": "µM"}, {"measurement": "TGI", "setting": "[38]", "result": 13.8, "unit": "µM"}, {"measurement": "GI50", "setting": "[39]", "result": 0.0846, "unit": "µM"}, {"measurement": "TGI", "setting": "[39]", "result": 14.2, "unit": "µM"}, {"measurement": "GI50", "setting": "[40]", "result": 0.411, "unit": "µM"}, {"measurement": "TGI", "setting": "[40]", "result": 16.7, "unit": "µM"}, {"measurement": "GI50", "setting": "[41]", "result": 0.0267, "unit": "µM"}, {"measurement": "TGI", "setting": "[41]", "result": 16.6, "unit": "µM"}, {"measurement": "GI50", "setting": "[42]", "result": "< 0.01", "unit": "µM"}, {"measurement": "TGI", "setting": "[42]", "result": 17.6, "unit": "µM"}, {"measurement": "GI50", "setting": "[43]", "result": 0.984, "unit": "µM"}, {"measurement": "TGI", "setting": "[43]", "result": 64.2, "unit": "µM"}, {"measurement": "GI50", "setting": "[44]", "result": "< 0.01", "unit": "µM"}, {"measurement": "TGI", "setting": "[44]", "result": 0.0209, "unit": "µM"}]}
